Compound: Cc1ccccc1C(C(=O)NC1CCCCC1)N(C(=O)Cn1ccnc1C)c1cccc(F)c1 [IDH-C35] + O=C(c1cc(Cc2n[nH]c(=O)c3ccccc23)ccc1F)N1CCN(C(=O)C2CC2)CC1 [Olaparib] (partner 8 µM)
Assay: relative viability (nuclei count vs DMSO), 5 days (fraction); higher = more cells survive
Conditions: first compound 0.08 µM
In short: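 Relative viability is defined as nuclei in treated wells over nuclei in vehicle wells. Duplicate plates were run and medians reported. Lung cancer cell lines in 1536-well plates were dosed by pin tool one day after seeding, with one drug or with a fixed anchor-drug dose plus five library-drug doses (not always all listed) in √10 steps, and nuclei were counted after 5 days.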

Cell Line	relative viability
LK-2	0.842
NCI-H2087	0.561
NCI-H2342	0.435
SK-MES-1	0.737
H3255	0.554
COR-L23	0.332
COR-L 105	0.606
IA-LM	0.872
LOU-NH91	0.949
ChaGo-K-1	0.432
NCI-H2170	0.616
NCI-H2405	0.85
HOP-62	0.46
HCC-44	0.987
A549	0.447
SW 900	0.915
LU99A	0.254
BEN	1.06
HARA	0.835
HCC-78	0.91
NCI-H322M	0.616
LCLC-97TM1	0.322
NCI-H2009	0.679
A-427	0.698
NCI-H441	0.627
NCI-H661	0.758

Cell Line	relative viability
NCI-H1734	0.585
NCI-H460	0.416
NCI-H2347	0.577
SK-LU-1	0.422
NCI-H1395	0.436
201T	0.762
NCI-H1915	0.267
HCC-827	0.545
LXF-289	1.1
NCI-H23	0.306
NCI-H1299	1.04
NCI-H647	0.453
CAL-12T	0.761
NCI-H1651	0.173
EPLC-272H	0.836
NCI-H2228	0.601
NCI-H1792	0.508
NCI-H1355	0.71
NCI-H3122	0.583
NCI-H1437	0.61
NCI-H1755	0.923
NCI-H2023	0.513
HCC-15	0.712
NCI-H1793	0.934
PC-14	0.251
EKVX	0.859

Same assay, conditions: first compound 0.253 µM

Cell Line	relative viability
NCI-H522	0.687
NCI-H727	0.873
NCI-H1650	0.65
EBC-1	0.689
NCI-H1703	0.47
NCI-H1993	1.13
SW 1573	0.54
NCI-H838	0.787
LCLC-103H	0.71
NCI-H520	0.284
NCI-H2126	0.928
EMC-BAC-2	0.509
NCI-H2085	0.776
Calu-6	0.563
HCC-366	0.361
NCI-H1666	0.795
NCI-H596	0.653
LK-2	0.772
NCI-H2087	0.533
NCI-H2342	0.49
SK-MES-1	0.728
H3255	0.576
COR-L23	0.391
COR-L 105	0.681

Cell Line	relative viability
IA-LM	0.88
LOU-NH91	0.976
ChaGo-K-1	0.432
NCI-H2170	0.654
NCI-H2405	0.858
HOP-62	0.222
HCC-44	0.927
A549	0.346
SW 900	0.819
LU99A	0.247
BEN	1.11
HARA	1.03
NCI-H1648	0.765
HCC-78	0.78
NCI-H322M	0.796
LCLC-97TM1	0.291
NCI-H2009	0.74
A-427	0.637
NCI-H441	0.638
NCI-H661	0.743
NCI-H1734	0.628
NCI-H460	0.419
NCI-H2347	0.628
SK-LU-1	0.399

Cell Line	relative viability
NCI-H1395	0.449
201T	0.824
NCI-H1915	0.269
HCC-827	0.608
LXF-289	0.996
NCI-H23	0.329
NCI-H1299	0.977
NCI-H647	0.516
CAL-12T	0.73
NCI-H1651	0.179
EPLC-272H	0.866
NCI-H2228	0.781
NCI-H1792	0.444
NCI-H1355	0.755
NCI-H3122	0.537
NCI-H1437	0.649
NCI-H1755	0.806
NCI-H2023	0.455
HCC-15	0.733
NCI-H1793	0.903
PC-14	0.271
EKVX	0.892

Same assay, conditions: first compound 0.8 µM

Cell Line	relative viability
NCI-H522	0.657
NCI-H727	0.705
NCI-H1650	0.769
EBC-1	0.724
NCI-H1703	0.441
NCI-H1993	1.03
SW 1573	0.496
NCI-H838	0.779
LCLC-103H	0.807
NCI-H520	0.313
NCI-H2126	0.92
EMC-BAC-2	0.472
NCI-H2085	0.77
Calu-6	0.609
HCC-366	0.345
NCI-H1666	0.721
NCI-H596	0.773
LK-2	0.575
NCI-H2087	0.627
NCI-H2342	0.41
SK-MES-1	0.609
H3255	0.579
COR-L23	0.317

Cell Line	relative viability
COR-L 105	0.713
IA-LM	0.731
LOU-NH91	0.888
ChaGo-K-1	0.438
NCI-H2170	0.587
NCI-H2405	0.825
HOP-62	0.272
HCC-44	0.988
A549	0.268
LU99A	0.291
BEN	1.03
HARA	0.742
NCI-H1648	0.801
HCC-78	0.883
NCI-H322M	0.794
LCLC-97TM1	0.341
NCI-H2009	0.613
A-427	0.732
NCI-H441	0.595
NCI-H661	0.738
NCI-H1734	0.61
NCI-H460	0.439
NCI-H2347	0.609

Cell Line	relative viability
SK-LU-1	0.396
NCI-H1395	0.473
201T	0.799
NCI-H1915	0.245
HCC-827	0.614
LXF-289	1.03
NCI-H23	0.33
NCI-H1299	0.979
NCI-H647	0.435
CAL-12T	0.629
NCI-H1651	0.181
EPLC-272H	1.24
NCI-H2228	0.61
NCI-H1792	0.417
NCI-H1355	0.749
NCI-H3122	0.587
NCI-H1437	0.609
NCI-H1755	0.884
NCI-H2023	0.503
HCC-15	0.724
NCI-H1793	0.932
PC-14	0.222
EKVX	0.836

Same assay, conditions: first compound 2.53 µM

Cell Line	relative viability
NCI-H522	0.59
NCI-H727	0.7
NCI-H1650	0.588
EBC-1	0.778
NCI-H1703	0.383
NCI-H1993	0.997
SW 1573	0.433
NCI-H838	0.785
LCLC-103H	0.777
NCI-H520	0.308
NCI-H2126	0.912
EMC-BAC-2	0.507
NCI-H2085	0.789
Calu-6	0.558
HCC-366	0.36
NCI-H1666	0.781
NCI-H596	0.751
LK-2	0.701
NCI-H2087	0.58
NCI-H2342	0.467
SK-MES-1	0.693
H3255	0.63
COR-L23	0.31

Cell Line	relative viability
COR-L 105	0.614
IA-LM	0.744
LOU-NH91	0.852
ChaGo-K-1	0.452
NCI-H2170	0.571
NCI-H2405	0.98
HCC-44	0.964
A549	0.168
SW 900	1.02
LU99A	0.259
BEN	0.952
HARA	0.725
NCI-H1648	0.681
HCC-78	0.932
NCI-H322M	0.789
NCI-H2009	0.655
A-427	0.742
NCI-H441	0.468
NCI-H661	0.71
NCI-H1734	0.634
NCI-H460	0.387
NCI-H2347	0.522
SK-LU-1	0.484

Cell Line	relative viability
NCI-H1395	0.463
201T	0.81
NCI-H1915	0.274
HCC-827	0.708
LXF-289	1.01
NCI-H23	0.321
NCI-H1299	1.04
NCI-H647	0.586
CAL-12T	0.747
NCI-H1651	0.166
EPLC-272H	0.904
NCI-H2228	0.71
NCI-H1792	0.474
NCI-H1355	0.741
NCI-H3122	0.623
NCI-H1437	0.619
NCI-H1755	0.847
NCI-H2023	0.474
NCI-H1793	0.862
PC-14	0.292
EKVX	0.918

Same assay, conditions: first compound 8 µM

Cell Line	relative viability
NCI-H522	0.746
NCI-H727	0.717
NCI-H1650	0.757
EBC-1	0.703
NCI-H1703	0.434
NCI-H1993	1.08
SW 1573	0.467
NCI-H838	0.745
LCLC-103H	0.711
NCI-H520	0.351
NCI-H2126	0.917
EMC-BAC-2	0.482
NCI-H2085	0.712
Calu-6	0.571
HCC-366	0.326
NCI-H1666	0.718
NCI-H596	0.785
LK-2	0.73
NCI-H2087	0.558
NCI-H2342	0.377
SK-MES-1	0.631
H3255	0.553
COR-L23	0.349
COR-L 105	0.714

Cell Line	relative viability
IA-LM	0.963
LOU-NH91	0.919
ChaGo-K-1	0.42
NCI-H2170	0.593
NCI-H2405	0.884
HOP-62	0.39
HCC-44	0.923
A549	0.112
SW 900	0.83
LU99A	0.248
BEN	0.995
HARA	0.845
NCI-H1648	0.782
HCC-78	0.741
NCI-H322M	0.845
LCLC-97TM1	0.47
NCI-H2009	0.669
A-427	0.77
NCI-H441	0.557
NCI-H661	0.688
NCI-H1734	0.588
NCI-H460	0.367
NCI-H2347	0.554
SK-LU-1	0.448

Cell Line	relative viability
NCI-H1395	0.464
201T	0.841
NCI-H1915	0.256
HCC-827	0.658
LXF-289	1.08
NCI-H23	0.381
NCI-H1299	0.998
NCI-H647	0.508
CAL-12T	0.701
NCI-H1651	0.188
EPLC-272H	0.603
NCI-H2228	0.516
NCI-H1792	0.362
NCI-H1355	0.73
NCI-H3122	0.665
NCI-H1437	0.602
NCI-H1755	0.866
NCI-H2023	0.446
HCC-15	0.667
NCI-H1793	0.859
PC-14	0.237
EKVX	0.802
